Source: publication PMC11911205 (Frontiers in Pharmacology, 2025)
Read-outs that look alike come from different tables or passages of the source. Blank lines part the entries; values can stand above or below the molecule they belong to.

Key:
[1] = target: human liver microsomes (HLM) (Homo sapiens, UniProt P08684)
Method: (§1) Considering that RLM or HLM microsome may have different metabolic rates, we conducted experiments on enzyme and incubation time before the start of the experiment. […] A rate-time graph was created to select the most suitable concentration and incubation time within the linear range of variation. […] The drug was dissolved in DMSO.
(§2) The relationship between reaction rate and substrate concentration based on the Michaelis-Menten equation was calculated, and the Km value through nonlinear fitting was determined. […] The relationship between inhibitor concentration and reaction rate was plotted after the reaction rate at different inhibitor concentrations was determined, and then the IC50 value through nonlinear regression analysis was calculated. […] The above mixture was incubated at 37°C for 5 min, after which NADPH was added to start the reaction process for 30 min, and it was finally cooled to −80°C to stop the reaction. 400 μL of acetonitrile and 20 μL of IS working solution (200 ng/mL) were incorporated into the mixture. Following vortexed and centrifugated at 13,000 rpm for 10 min, the supernatant was obtained for UPLC-MS/MS analysis.
(§3) Km, IC50, Lineweaver-Burk plots and mean plasma concentration-time curves were generated using GraphPad Prism 9.5 software. […] SPSS (version 26.0; SPSS Inc., Chicago, IL, United States) was used for data processing, and t-test was employed to determine whether there was a significant difference.

[2] = target: vandetanib metabolism (N-demethyl vandetanib formation) in human liver microsomes (Homo sapiens, UniProt P08684); assay: Vandetanib metabolism (N-demethyl vandetanib formation) and its inhibition by luteolin in human liver microsomes; conditions: pH 7.4
Method: as §1, §2, §3

[3] = test system: rat liver microsomes (RLM); assay: Vandetanib metabolism (N-demethyl vandetanib formation) and its inhibition by luteolin in rat liver microsomes; conditions: RLM, Lineweaver-Burk plot
Method: as §1, §2, §3

[4] = test system: vandetanib metabolism (N-demethyl vandetanib formation) in rat liver microsomes; assay: as above; conditions: rat, rat liver microsomes, pH 7.4, probe vandetanib at its Km value in RLM
Method: as §1, §2, §3

[5] = Pharmacokinetics of vandetanib and N-demethyl vandetanib in SD rats with or without luteolin (UPLC-MS/MS of plasma); type: in vivo, Sprague-Dawley (SD) rats; conditions: for AUC(0-t) / AUC(0-∞) / CLz/F / Cmax / Tmax / t1/2 / AUC(0-inf) / half-life / CL/F: plasma; for CL/F: read-out: CLz/F (converted)
Method: Male SD rats weighing 180–220 g were provided by the Laboratory Animal Center of the First Affiliated Hospital of Wenzhou Medical University (Zhejiang, China). They were housed under standard conditions with a temperature of 20°C–26°C, a relative humidity of 55% ± 15%, and a 12-h dark/light cycle. The rats had free access to water and no other drugs were given during the feeding period, and were prohibited from eating for 12 h before the experiment. The experimental procedures and protocols were in accordance with animal ethics standards and approved by the Institutional Animal Care and Use Committee of the First Affiliated Hospital of Wenzhou Medical University (Zhejiang, China).
Therefore, we adopted the same dosages to ensure the comparability and validity of the experimental results. 0.3 mL tail vein blood was collected at 0.5, 1, 1.5, 2, 3, 4, 6, 8, 12, 24, 48 and 80 h post-vandetanib administration. The blood samples were centrifuged at 4°C at 13,000 rpm for 10 min to obtain plasma, which was aspirated and stored at −80°C until analysis.

[6] = parameters: method as in Martin et al., 2011; conditions: ref Martin et al., 2011, cited from earlier work
in vitro = conditions: rat, pH 7.4
Method: as §1, §2, §3

[7] = parameters: method as in Indra et al., 2020; conditions: ref Indra et al., 2020; cited from earlier work
[8] = inhibition of vandetanib metabolism
[9] = luteolin 30 mg/kg by gavage 30 min before vandetanib 25 mg/kg by gavage
[10] = vandetanib 25 mg/kg by gavage alone (control group)
[11] = luteolin 30 mg/kg + vandetanib 25 mg/kg vs vandetanib alone
[12] = male, Sprague-Dawley, rat, po, 25 mg/kg, luteolin 30 mg/kg by gavage 30 min before vandetanib 25 mg/kg by gavage
[13] = male, Sprague-Dawley, rat, po, 25 mg/kg, vandetanib 25 mg/kg by gavage alone (control group)

Chain of human liver microsomes (HLM) (P08684 2-503): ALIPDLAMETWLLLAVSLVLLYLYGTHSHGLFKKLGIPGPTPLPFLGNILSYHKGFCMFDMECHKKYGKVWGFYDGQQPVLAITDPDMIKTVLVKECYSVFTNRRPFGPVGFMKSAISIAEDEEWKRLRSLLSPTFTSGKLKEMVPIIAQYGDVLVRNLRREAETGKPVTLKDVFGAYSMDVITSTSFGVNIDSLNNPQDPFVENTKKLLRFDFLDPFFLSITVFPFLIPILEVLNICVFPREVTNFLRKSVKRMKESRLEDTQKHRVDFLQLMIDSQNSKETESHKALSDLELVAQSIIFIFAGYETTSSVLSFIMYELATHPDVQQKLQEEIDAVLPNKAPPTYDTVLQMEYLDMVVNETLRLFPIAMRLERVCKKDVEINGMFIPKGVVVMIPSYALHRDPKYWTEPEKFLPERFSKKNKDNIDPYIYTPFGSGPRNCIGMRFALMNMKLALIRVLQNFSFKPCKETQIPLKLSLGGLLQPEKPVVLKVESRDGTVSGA
Chain of vandetanib metabolism (N-demethyl vandetanib formation) in human liver microsomes (P08684 2-503): as above

Compound: O=c1cc(-c2ccc(O)c(O)c2)oc2cc(O)cc(O)c12 [Luteolin]
- inhibition type [1]: mixture of non-competitive and un-competitive
- α [1]: 0.28 µM
- IC50 at 30 min [2]: 15.8 µM
- inhibition mechanism [3]: mixture of non-competitive inhibition and competitive inhibition
- Ki [3, 8]: 2.33 µM
- α [3, 8]: 6.68 µM
- IC50 at 30 min [4]: 8.56 µM

- AUC(0-t) [5, 9]: 998.82 ± 276.65 ng·h/mL
- AUC(0-∞) [5, 9]: 1,118.64 ± 320.66 μg/L*h
- CLz/F [5, 9]: 397.2 ± 108 mL/min/kg
- Cmax [5, 9]: 22.41 ± 5.84 ng/mL
- Tmax [5, 9]: 11.20 ± 1.79 h
- t1/2 [5, 9]: 24.33 ± 5.63 h
- AUC(0-t) [5, 10]: 938.88 ± 144.07 ng·h/mL
- AUC(0-∞) [5, 10]: 1,163.14 ± 157.34 μg/L*h
- CLz/F [5, 10]: 363.8 ± 51.7 mL/min/kg
- Cmax [5, 10]: 19.56 ± 3.03 ng/mL
- Tmax [5, 10]: 14.40 ± 5.37 h
- t1/2 [5, 10]: 34.04 ± 15.69 h
Compound: COc1cc2c(Nc3ccc(Br)cc3F)ncnc2cc1OCC1CCNCC1 [N-demethyl vandetanib]

- Km at 30 min (in vitro): 9.41 µM
- increase of AUC(0-t) of vandetanib in luteolin group compared with the control group [5, 11]: 18.1%
- increase of Cmax of vandetanib in luteolin group compared with the control group [5, 11]: 32.8%
- AUC(0-inf) [5, 12]: 41100 ng·h/mL
- half-life [5, 12]: 23 ± 4.02 h
- AUC(0-t) ([5]; male, Sprague-Dawley, rat, po, 25 mg/kg, luteolin 30 mg/kg by gavage 30 min before vandetanib 25 mg/kg by gavage, read-out: AUC(0-t)): 37100 ng·h/mL
- CL/F [5, 12]: 10.2 mL/min/kg
- Cmax ([5]; male, Sprague-Dawley, rat, po, 25 mg/kg, luteolin 30 mg/kg by gavage 30 min before vandetanib 25 mg/kg by gavage, read-out: Cmax): 1140 ng/mL
- Tmax ([5]; male, Sprague-Dawley, rat, po, 25 mg/kg, luteolin 30 mg/kg by gavage 30 min before vandetanib 25 mg/kg by gavage, read-out: Tmax): 7.6 ± 2.61 h
- AUC(0-inf) [5, 13]: 36100 ng·h/mL
- half-life [5, 13]: 26.6 ± 4.35 h
- AUC(0-t) ([5]; male, Sprague-Dawley, rat, po, 25 mg/kg, vandetanib 25 mg/kg by gavage alone (control group), read-out: AUC(0-t)): 31400 ng·h/mL
- CL/F [5, 13]: 11.7 mL/min/kg
- Cmax ([5]; male, Sprague-Dawley, rat, po, 25 mg/kg, vandetanib 25 mg/kg by gavage alone (control group), read-out: Cmax): 859 ± 125 ng/mL
- Tmax ([5]; male, Sprague-Dawley, rat, po, 25 mg/kg, vandetanib 25 mg/kg by gavage alone (control group), read-out: Tmax): 8.8 ± 3.03 h
Compound: COc1cc2c(Nc3ccc(Br)cc3F)ncnc2cc1OCC1CCN(C)CC1 [Vandetanib]
- levels of vandetanib exposure ([6]; combined with itraconazole, a potent CYP3A4 inhibitor): increased
- AUC of vandetanib ([6]; combined with rifampicin, a strong inducer of CYP3A4): significantly decreased

Compound: COc1cc2c(Nc3ccc(Br)cc3F)ncnc2cc1OCC1CC[N+](C)([O-])CC1 (stereo not shown) [vandetanib N-oxide]
- less activity compared to the original compound (vandetanib) [7]: over 50 times
